Assay results published in DBAASP.
≈ marks a conversion by molar mass, not a printed value.

Assays:
Experiment in all cases: ≥ marks a high value that may be exact or a test limit, other limits are often not marked, values filed in µg/mL are converted to µM
[1] = system: Bacillus cereus CMCC 6303
[2] = system: Cronobacter sakazakii ATCC 29544
[3] = system: Escherichia coli UB1005
[4] = system: Listeria monocytogenes CMCC 54004
[5] = system: Salmonella enterica subsp. enterica CMCC 47020
[6] = system: Salmonella enterica subsp. enterica serovar Pullorum C79-13
[7] = system: Salmonella enterica subsp. enterica serovar Typhi CMCC 50071
[8] = system: Salmonella enterica subsp. enterica serovar Typhimurium ATCC 14028
[9] = system: Salmonella enterica subsp. enterica serovar Typhimurium C77-31
[10] = system: Staphylococcus aureus ATCC 25923
[11] = system: Staphylococcus aureus CMCC 26074
[12] = system: Aureobasidium pullulans
[13] = system: Candida albicans ATCC 10231
[14] = system: Corynebacterium glutamicum ATCC 13032
[15] = system: Escherichia coli ATCC 25922
[16] = system: Pseudomonas aeruginosa ATCC 27853
[17] = system: Staphylococcus aureus ATCC 9144
[18] = system: Bacillus megaterium Bm11
[19] = system: Escherichia coli ML-35
[20] = system: Staphylococcus aureus 710A
[21] = system: Batrachochytrium dendrobatidis
[22] = system: Escherichia coli DH5alpha
[23] = system: Klebsiella pneumoniae KAY 2026
[24] = system: Pseudomonas aeruginosa ATCC 15692
[25] = system: Staphylococcus aureus Newman
[26] = system: Staphylococcus epidermidis ATCC 35984
[27] = system: Streptococcus mutans JM11
[28] = system: Bacillus subtilis IFO 3037
[29] = system: Escherichia coli IFO 14237
[30] = system: Pseudomonas aeruginosa IFO 12582
[31] = system: Staphylococcus aureus IFO 12732
[32] = system: Bacillus subtilis DSM 347
[33] = system: Escherichia coli DSM 1116
[34] = system: Franconibacter helveticus DSM 18390
[35] = system: Staphylococcus xylosus DSM 20287
[36] = system: Escherichia coli KpC+001812446
[37] = system: Escherichia coli KpC+002101123
[38] = system: Klebsiella pneumoniae ATCC 13883
[39] = system: Klebsiella pneumoniae KpC+001825971
[40] = system: Staphylococcus aureus MR

CC[C@H](C)[C@H](NC(=O)[C@H](CCCN=C(N)N)NC(=O)[C@H](CCCCN)NC(=O)[C@H](Cc1c[nH]c2ccccc12)NC(=O)[C@@H](N)CCCN=C(N)N)C(=O)N[C@H](C(=O)N[C@H](C(=O)N[C@H](C(=O)N[C@@H](CCCN=C(N)N)C(=O)N[C@@H](CCCCN)C(=O)N[C@@H](CCCN=C(N)N)C(=O)N[C@@H](CCCN=C(N)N)C(N)=O)[C@@H](C)CC)C(C)C)C(C)C [RWKRIVVIRKRR]
MIC [1]: ≥ 128 µM | MIC [2]: ≥ 256 µM | MIC [3]: ≥ 256 µM | MIC [4]: ≥ 128 µM | MIC [5]: ≥ 256 µM | MIC [6]: ≥ 256 µM | MIC [7]: ≥ 128 µM | MIC [8]: 128 µM (≈ 213 µg/mL) | MIC [9]: ≥ 256 µM | MIC [10]: > 256 µM | MIC [11]: ≥ 256 µM

CC(C)[C@H](NC(=O)[C@H](CCCCN)NC(=O)[C@H](C)NC(=O)[C@@H](NC(=O)[C@@H](NC(=O)[C@H](CCCN=C(N)N)NC(=O)[C@H](CCCN=C(N)N)NC(=O)[C@H](Cc1c[nH]c2ccccc12)NC(=O)[C@H](Cc1c[nH]c2ccccc12)NC(=O)CN)[C@@H](C)O)C(C)C)C(=O)N[C@@H](CCCN=C(N)N)C(=O)N[C@@H](CCCCN)C(N)=O [GWWRRTVAKVRK]
MIC [12]: 12.5 µM (≈ 19.3 µg/mL) | MIC [13]: 6.3 µM (≈ 9.71 µg/mL) | MIC [14]: 0.4 µM (≈ 0.617 µg/mL) | MIC [15]: 3.1 µM (≈ 4.78 µg/mL) | MIC [16]: 1.6 µM (≈ 2.47 µg/mL) | MIC [17]: 12.5 µM (≈ 19.3 µg/mL)

CC[C@H](C)[C@H](NC(=O)[C@H](CCCCN)NC(=O)[C@H](CCCCN)NC(=O)[C@H](CC(C)C)NC(=O)[C@H](CC(C)C)NC(=O)CN)C(=O)NCC(=O)N[C@@H](CCCCN)C(=O)N[C@@H](CCCCN)C(=O)N[C@@H](C)C(=O)N[C@@H](CCCCN)C(=O)N[C@@H](CCCCN)C(=O)N[C@@H](C)C(=O)NCC(=O)N[C@@H](CCCCN)C(=O)N[C@@H](CCCCN)C(=O)N[C@@H](CC(C)C)C(=O)NCC(=O)N[C@@H](Cc1ccc(O)cc1)C(N)=O [GLLKKIGKKAKKAGKKLGY]
MIC [18]: ≥ 32 µM | MIC [19]: 4 µM (≈ 8.11 µg/mL) | MIC [16]: 16 µM (≈ 32.5 µg/mL) | MIC [8]: > 32 µM | MIC [20]: ≥ 32 µM

CC[C@H](C)[C@H](NC(=O)[C@@H](NC(=O)[C@@H]1CCCN1C(=O)[C@H](CC(C)C)NC(=O)[C@@H](N)Cc1ccccc1)[C@@H](C)CC)C(=O)N[C@@H](C)C(=O)N[C@@H](CO)C(=O)N[C@@H](CC(C)C)C(=O)N[C@@H](CC(C)C)C(=O)NCC(=O)N[C@@H](CCCCN)C(=O)N[C@@H](CC(C)C)C(=O)N[C@@H](CC(C)C)C(N)=O [FLPIIASLLGKLL]
MIC [21]: 28.6 µM (≈ 40 µg/mL)

CC[C@H](C)[C@H](NC(=O)[C@@H](N)Cc1ccccc1)C(=O)N[C@@H](CCCN=C(N)N)C(=O)N[C@@H](CCCCN)C(=O)N[C@@H](Cc1ccccc1)C(=O)N[C@@H](CC(C)C)C(=O)N[C@@H](CCCCN)C(=O)N[C@@H](CCCCN)C(=O)N[C@@H](Cc1c[nH]c2ccccc12)C(=O)N[C@@H](CC(C)C)C(=O)N[C@@H](CC(C)C)C(N)=O [FIRKFLKKWLL]
MIC [22]: 5.47 µM (≈ 8.16 µg/mL) | MIC [23]: 2.98 µM (≈ 4.44 µg/mL) | MIC [24]: 14.4 µM (≈ 21.5 µg/mL) | MIC [25]: 5.62 µM (≈ 8.39 µg/mL) | MIC [26]: 5.11 µM (≈ 7.62 µg/mL) | MIC [27]: 2.86 µM (≈ 4.26 µg/mL)

CC[C@H](C)[C@H](NC(=O)[C@H](CC(N)=O)NC(=O)[C@H](CC(C)C)NC(=O)[C@H](CCCCN)NC(=O)[C@@H](NC(=O)[C@@H](NC(=O)[C@H](CC(=O)O)NC(=O)[C@@H](N)Cc1ccccc1)[C@@H](C)CC)[C@@H](C)O)C(=O)N[C@@H](CCCCN)C(=O)N[C@@H](CCCCN)C(=O)N[C@@H](CC(C)C)C(=O)N[C@H](C(=O)N[C@@H](CCCCN)C(=O)N[C@@H](C)C(=O)N[C@H](C(=O)N[C@H]1CSSC[C@@H](C(=O)N[C@@H](CCCCN)C(=O)N[C@H](C(=O)N[C@@H](CC(C)C)C(=O)N[C@@H](Cc2ccccc2)C(=O)N[C@@H](CC(=O)O)C(=O)N[C@@H](CCCCN)C(=O)N[C@@H](CCCCN)C(=O)N[C@@H](CCCCN)C(=O)N[C@@H](CCC(N)=O)C(=O)N[C@@H](CCC(=O)O)C(=O)O)C(C)C)NC(=O)[C@H](CCSC)NC(=O)[C@H](CO)NC(=O)[C@H](C)NC(=O)CNC(=O)[C@H](CCCCN)NC(=O)[C@H](CO)NC(=O)[C@H]([C@@H](C)CC)NC(=O)[C@H](C(C)C)NC(=O)[C@H](CCCCN)NC1=O)[C@@H](C)O)[C@@H](C)O [FDITKLNIKKLTKATCKVISKGASMCKVLFDKKKQE]
MIC [28]: ≥ 50 µM | MIC [29]: 6.25 µM (≈ 25.5 µg/mL) | MIC [30]: 25 µM (≈ 102 µg/mL) | MIC [31]: 6.25 µM (≈ 25.5 µg/mL)

CC[C@H](C)[C@H](N)C(=O)N[C@@H](C)C(=O)NCC(=O)N[C@@H](CCCCN)C(=O)N[C@H](C(=O)N[C@@H](C)C(=O)N[C@@H](CCCCN)C(=O)N[C@H](C(=O)N[C@@H](C)C(=O)NCC(=O)N[C@@H](CCCCN)C(=O)N[C@H](C(=O)N[C@@H](C)C(=O)N[C@@H](CCCCN)C(=O)N[C@H](C(=O)N[C@@H](C)C(=O)NCC(=O)N[C@@H](CCCCN)C(=O)N[C@H](C(=O)N[C@@H](C)C(=O)N[C@@H](CCCCN)C(=O)N[C@H](C(=O)N[C@@H](C)C(=O)NCC(=O)N[C@@H](CCCCN)C(=O)N[C@H](C(=O)N[C@@H](C)C(N)=O)[C@@H](C)CC)[C@@H](C)CC)[C@@H](C)CC)[C@@H](C)CC)[C@@H](C)CC)[C@@H](C)CC)[C@@H](C)CC [IAGKIAKIAGKIAKIAGKIAKIAGKIA]
MIC [32]: 1.08 µM (≈ 2.83 µg/mL) | MIC [33]: 2.16 µM (≈ 5.65 µg/mL) | MIC [34]: 1.08 µM (≈ 2.83 µg/mL) | MIC [35]: 0.764 µM (≈ 2 µg/mL)

CC[C@H](C)[C@H](NC(=O)[C@@H](NC(=O)[C@H](CO)NC(=O)[C@H](C)NC(=O)[C@@H](NC(=O)[C@H](CCCCN)NC(=O)[C@H](CCCCN)NC(=O)[C@@H](NC(=O)[C@@H](NC(=O)[C@H](CC(=O)O)NC(=O)[C@H](Cc1ccccc1)NC(=O)[C@H](CC(C)C)NC(=O)CNC(=O)[C@H](Cc1cnc[nH]1)NC(=O)CNC(=O)CN)C(C)C)[C@@H](C)CC)C(C)C)C(C)C)C(=O)NCC(=O)NCC(=O)N[C@@H](CC(C)C)C(N)=O [GGHGLFDVIKKVASVIGGL]
MIC [15]: 34 µM (≈ 63.5 µg/mL) | MIC [36]: ≥ 34 µM | MIC [37]: 9 µM (≈ 16.8 µg/mL) | MIC [38]: ≥ 34 µM | MIC [39]: ≥ 34 µM | MIC [16]: > 34 µM | MIC [10]: 9 µM (≈ 16.8 µg/mL) | MIC [40]: 17 µM (≈ 31.7 µg/mL)
